# According to patent US7317038B2, “Nerve regeneration promoters containing semaphorin inhibitor as the active ingredient” (Dainippon Sumitomo Pharma Co., Ltd., priority 2000, dated 2008):
# “Also recorded” adds a separate entry of the source.
# Legend:
# COS7 cells = test: Effect on cell proliferation (MTT); format: cell-based; settings: two days
# Method: COS7 cells were seeded onto a 96-well plate (medium 100 μl/well) at 10000 cells per well. At the same time, SPF-3059-1 of various concentrations was added and the cells were cultivated for two days in the presence of 5% CO2 at 37° C. Each well was then added with 10 μl of MTT solution at 5 mg/ml and cultured for another one hour. Subsequently, the culture supernatant was removed and formazan (an MTT derivative produced in viable cells) accumulated in the cells was dissolved by the addition of 50 μl DMSO and then the absorbance at 570 nm was measured to determine the proliferation of COS7 cells. […] The longitudinal and lateral axes in the figure show cell proliferation and the SPF-3059-1 concentration, respectively. Besides, the standard deviation (n=4) was added to each column.
# The same effect on cell proliferation as in Example 9 was examined for the compounds, SPF-3059-1, SPF-3059-2 and SPF-3059-5. The wells with these compounds were served as samples, the wells with PBS were served as control, and the wells for which the experiment was carried out without adding the cells was served as blank. IC50 (μg/ml), the inhibitory rate for cell proliferation, was determined, which is calculated by the equation shown below. The inhibitory rate for cell proliferation (%)=(1−(absorbance of a sample well−absorbance of the blank well)/(absorbance of the control well−absorbance of the blank well))×100
# [1] = target: T1, mouse semaphorin 3A (Sema3A) (Mus musculus, UniProt O08665); test: Suppression of growth cone collapse activity of Sema3A (chick embryo dorsal root ganglions); format: cell-based
# T1 sequence (O08665 21-772): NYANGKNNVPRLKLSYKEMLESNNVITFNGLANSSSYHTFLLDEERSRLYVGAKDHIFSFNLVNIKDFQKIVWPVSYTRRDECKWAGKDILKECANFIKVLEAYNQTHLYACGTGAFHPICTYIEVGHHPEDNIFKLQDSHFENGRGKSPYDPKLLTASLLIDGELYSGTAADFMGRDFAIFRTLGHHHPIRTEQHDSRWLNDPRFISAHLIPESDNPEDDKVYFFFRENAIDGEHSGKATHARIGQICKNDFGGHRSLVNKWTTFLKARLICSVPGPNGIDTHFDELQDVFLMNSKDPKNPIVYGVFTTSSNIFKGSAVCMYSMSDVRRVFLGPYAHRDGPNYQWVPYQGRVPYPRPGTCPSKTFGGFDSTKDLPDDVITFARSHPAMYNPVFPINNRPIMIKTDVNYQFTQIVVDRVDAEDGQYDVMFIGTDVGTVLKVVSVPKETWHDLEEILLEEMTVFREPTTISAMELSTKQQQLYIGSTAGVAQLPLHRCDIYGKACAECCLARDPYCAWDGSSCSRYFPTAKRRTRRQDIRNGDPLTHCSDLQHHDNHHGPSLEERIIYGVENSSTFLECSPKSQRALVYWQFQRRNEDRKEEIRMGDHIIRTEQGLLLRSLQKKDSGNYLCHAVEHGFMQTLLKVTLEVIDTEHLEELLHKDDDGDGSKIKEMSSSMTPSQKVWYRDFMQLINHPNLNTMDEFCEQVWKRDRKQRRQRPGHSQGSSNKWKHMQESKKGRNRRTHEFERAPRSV
# Method: A 96-well plate (Sumitomo Bakelite Co., ltd. ) pre-coated with polylysine was further coated with laminine (20 μg/ml of laminine, for 1 hour at room temperature). Each well was added with 100 μl of medium (F12 medium containing 10% bovine fetal serum, 20 ng/ml of NGF, 100 units/ml of penicillin and 100 μg/ml of streptomycin) which media were then inoculated with dorsal root nerve ganglions excised from E7 (Embryonic day 7) chick embryo and were cultured for 16 to 20 hours under 5% CO2 and at 37° C. Subsequently, the object compounds were added to media at various concentrations and 2 units/ml of mouse semaphorin 3A (Sema3A) was added after cultivating for 1 hour. The cultures were further incubated for another 1 hour. Glutaraldehyde was quickly added therein after said 1 hour to make the final concentration 1%. The cultures were then left for 15 minutes at room temperature so that the tissue sections were fixed, and collapse rates of the growth cones were microscopically observed. A well with no addition of Sema3A was made the control.
# The longitudinal and lateral axes in the figures represent the collapse rate of growth cones and the concentration of compounds, respectively. ●▪▴ show the results when Sema3A was added after the addition of the compounds and ◯[…]Δ show those when Sema3A was not added. Further, IC50 (μg/ml) of the inhibitors were determined by the method comprising: calculating the collapse rate of growth cone (A) % of the negative controls (neither compounds nor Sema3a was added); subsequently calculate the collapse rate of growth cone (B) % of the positive controls (compounds were not added but Sema3a was added); and the concentration was chosen for each compound from the chart where the collapse rate of growth cone met (A+B)/2(%), which was made IC50 level. The followings are the results.
smiles,measurement,setting,value
CC(=O)c1c(C)c(C(=O)C2COc3cc(O)c(O)c(C(=O)O)c3C2=O)cc2c(=O)c3c(C(=O)O)c(O)c(O)cc3oc12 (stereo not shown) [SPF-3059-1],IC50,"COS7 cells; Chlorocebus aethiops, COS-7, 48 h, read-out: IC50, inhibitory rate for cell proliferation",> 300 µg/mL
same,suppressing activity for cell proliferation (in words),COS7 cells,no suppressing activity
same,IC50,"[1]; E7 chick embryo dorsal root ganglions, 2 units/ml Sema3A added 1 hour after compound, concentration where collapse rate = (A+B)/2, read-out: IC50 of inhibition of the growth cone collapse activity of Sema3A (converted)",< 173 nM
same,inhibition of growth cone collapse activity of Sema3A (in words),[1]; chick embryo dorsal root ganglions,inhibit the growth cone collapse activities of Sema3A in a concentration-dependent manner; also recorded: potently inhibit semaphorin
